The test system of data set [1] is mdx mouse diaphragm muscle. The data set is described as follows: Fluorescence staining of nanoparticle and rapamycin deposition in mdx diaphragm. Type of data set: in vivo. The note with it: mdx mouse treated with rapamycin-loaded nanoparticles. An excerpt: The nanoparticles were rhodamine-labeled, and the rapamycin was labeled with Cy-7.
The conditions of data set [2]: humans; cited from earlier work.

Molecules are shown by their SMILES.

On to `CO[C@H]1C[C@@H]2CC[C@@H](C)[C@@](O)(O2)C(=O)C(=O)N2CCCC[C@H]2C(=O)O[C@H]([C@H](C)C[C@@H]2CC[C@@H](O)[C@H](OC)C2)CC(=O)[C@H](C)/C=C(\C)[C@@H](O)[C@@H](OC)C(=O)[C@H](C)C[C@H](C)/C=C/C=C/C=C/1C` [rapamycin], for which the “distribution of Cy-7 labeled rapamycin in diaphragm muscle” value in data set [1] was “both punctate and diffuse staining”. In addition, in data set [2], the oral absorption was 18%.

The record behind these values is patent publication US9415018B2, “Methods for improving muscle strength” (Washington University, priority 2012, dated 2016).
